Source: the supplement of paper PMC10627819

Experiments:
S. pneumoniae D39V [1] = assay: fitness (endpoint OD595 vs no drug) (fraction); higher = more growth
How it was run: (§1)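 Bacterial fitness was scored as optical density at the stationary-phase transition relative to the robust mean of no-drug control wells. Scores are capped at 1. The growth data were OD595 readings every 30 min for 14 h at 37 °C, background-subtracted against the first reading, from 384-well plates inoculated at OD595 0.01 in TSB, LB Lennox or CY.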

B. subtilis 168 [2] = assay: as above
How it was run: as §1

S. pneumoniae D39V [3] = assay: Bliss interaction score (quartile over a dose matrix) (fitness difference); higher = more antagonism (negative = synergy)
How it was run: (§2)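 The Bliss score is observed fitness minus expected fitness, where the expected value is the product of single-drug fitness values inferred from combination data. Fitness is OD595 at entry into stationary phase normalised to the plate's robust no-drug mean and capped at 1. Scores are reported as quartiles spanning technical, biological and donor/recipient replicates.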

S. aureus DSM 20231 = assay: as above
How it was run: as §2

B. subtilis 168 [4] = assay: as above
How it was run: as §2

S. aureus Newman = assay: as above
How it was run: as §2
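For Bliss interaction score (quartile over a dose matrix) in this document: first quartile when negative (synergy) and third quartile when positive (antagonism).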
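For fitness (endpoint OD595 vs no drug) in this document: OD595 on entry to stationary phase over no-drug wells; at most 1.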

C[C@H]1c2cccc(O)c2C(=O)C2=C(O)[C@]3(O)C(=O)C(C(N)=O)=C(O)[C@@H](N(C)C)[C@@H]3[C@@H](O)[C@@H]21 [Doxycycline] + CCC[C@@H]1C[C@@H](C(=O)N[C@@H]([C@H]2O[C@H](SC)[C@H](O)[C@@H](O)[C@H]2O)[C@@H](C)O)N(C)C1 [Lincomycin]
fitness, one replicate
Conditions | first compound 0.003875 µg/mL | first compound 0.00775 µg/mL | first compound 0.02 µg/mL | first compound 0.031 µg/mL | first compound 0.04 µg/mL | first compound 0.062 µg/mL | first compound 0.08 µg/mL
B. subtilis 168 [2], partner 0.8 µg/mL | – | – | 0.881 | – | 0.693 | – | 0.209
B. subtilis 168 [2], partner 1.6 µg/mL | – | – | 0.792 | – | 0.549 | – | 0.153
S. pneumoniae D39V [1], partner 0.2 µg/mL | 0.822 | 0.77 | – | 0.636 | – | 0.374 | –
S. pneumoniae D39V [1], partner 0.4 µg/mL | 0.748 | 0.711 | – | 0.398 | – | 0.146 | –
S. pneumoniae D39V [1], partner 0.8 µg/mL | 0.231 | 0.303 | – | 0.163 | – | 0.0672 | –

fitness
Conditions | partner 0.1 µg/mL | partner 0.2 µg/mL | partner 0.215 µg/mL | partner 0.4 µg/mL | partner 0.43 µg/mL | partner 0.8 µg/mL | partner 0.86 µg/mL
B. subtilis 168 [2], first compound 0.02 µg/mL | 0.918 | 0.888 | – | 0.885 | – | – | –
B. subtilis 168 [2], first compound 0.04 µg/mL | 0.764 | 0.72 | – | 0.717 | – | – | –
S. pneumoniae D39V [1], first compound 0.0155 µg/mL | – | 0.76 | 0.726 | 0.657 | 0.62 | 0.213 | 0.344
S. pneumoniae D39V [1], first compound 0.031 µg/mL | – | – | 0.716 | – | 0.625 | – | 0.298
S. pneumoniae D39V [1], first compound 0.062 µg/mL | – | – | 0.674 | – | 0.481 | – | 0.221

Conditions | Bliss interaction score
B. subtilis 168 [4] | 0.0648
S. aureus DSM 20231 | -0.228
S. aureus Newman | -0.0975
S. pneumoniae D39V [3] | -0.13

O=C(O)c1cn(C2CC2)c2cc(N3CCNCC3)c(F)cc2c1=O [Ciprofloxacin] + CN(C)C(=O)C(CCN1CCC(O)(c2ccc(Cl)cc2)CC1)(c1ccccc1)c1ccccc1 [Loperamide]
Conditions | fitness
B. subtilis 168 [2], first compound 0.0098 µg/mL, partner 25 µg/mL | 0.855
B. subtilis 168 [2], first compound 0.0195 µg/mL, partner 25 µg/mL | 0.643
B. subtilis 168 [2], first compound 0.039 µg/mL, partner 25 µg/mL | 0.038
B. subtilis 168 [2], first compound 0.039 µg/mL, partner 50 µg/mL | 0.0608
B. subtilis 168 [2], first compound 0.039 µg/mL, partner 100 µg/mL | 0.0402
S. pneumoniae D39V [1], first compound 0.125 µg/mL, partner 17.14 µg/mL | 0.944
S. pneumoniae D39V [1], first compound 0.125 µg/mL, partner 20 µg/mL | ≥ 1
S. pneumoniae D39V [1], first compound 0.125 µg/mL, partner 34.28 µg/mL | 0.923
S. pneumoniae D39V [1], first compound 0.125 µg/mL, partner 40 µg/mL | ≥ 1
S. pneumoniae D39V [1], first compound 0.25 µg/mL, partner 17.14 µg/mL | 0.887
S. pneumoniae D39V [1], first compound 0.25 µg/mL, partner 34.28 µg/mL | 0.886
S. pneumoniae D39V [1], first compound 0.5 µg/mL, partner 17.14 µg/mL | 0.763
S. pneumoniae D39V [1], first compound 0.5 µg/mL, partner 20 µg/mL | 0.883
S. pneumoniae D39V [1], first compound 0.5 µg/mL, partner 34.28 µg/mL | 0.731
S. pneumoniae D39V [1], first compound 0.5 µg/mL, partner 40 µg/mL | 0.865

fitness, S. pneumoniae D39V [1], one replicate
Conditions | partner 20 µg/mL | partner 40 µg/mL | partner 68.57 µg/mL | partner 80 µg/mL
first compound 0.125 µg/mL | – | – | 0.952 | –
first compound 0.25 µg/mL | 0.994 | ≥ 1 | 0.964 | 0.531
first compound 0.5 µg/mL | – | – | 0.886 | –

Conditions | Bliss interaction score
B. subtilis 168 [4] | 0.199
S. aureus DSM 20231 | -0.258
S. aureus Newman | -0.0992
S. pneumoniae D39V [3] | 0.109
